In patent US20250144067A1, “PERSONALIZED STARVATION THERAPY FOR CANCER” (Faeth Therapeutics, Inc., priority 2021, published 2025):
Structures can show the parent of a compound that is named as a salt.

How the values were obtained:
[1] = tested on: NCI-H292 lung cancer cells; assay: FDA drug screening, complete media vs cholesterol-free media with simvastatin (TABLE 2); format: cell-based, human; conditions: for Cholesterol-free media + simvastatin (0.04 μM) / Complete Media: NCI-H292 cells
[2] = tested on: NCI-H292 lung cancer cells; assay: FDA drug screening, complete media vs cholesterol-free media without statin (TABLE 1); format: cell-based, human
[3] = FDA drug library screen, cholesterol-free media with simvastatin 0.04 μM
[4] = FDA drug library screen, complete media
[5] = complete media minus cholesterol-free media + simvastatin, >0 enhanced anti-cancer activity, about 0 neutral, <0 antagonist
[6] = Complete minus Cholesterol-free, greater than 0 enhanced anti-cancer activity, about 0 neutral, below 0 antagonist
[7] = NCI-H292 cells, FDA drug library screen, cholesterol-free media without statin
[8] = NCI-H292 cells, FDA drug library screen, complete media
[9] = drug in cholesterol-free media with simvastatin 0.04 μM
[10] = complete media vs cholesterol-free media + simvastatin (0.04 μM), >0 enhanced anti-cancer activity, about 0 neutral, <0 antagonist
[11] = Complete minus Cholesterol-free, >0 enhanced anti-cancer activity, about 0 neutral, <0 antagonist
[12] = NCI-H292 cells, cholesterol-free media without statin
[13] = cholesterol-free media with simvastatin 0.04 μM, FDA drug library screen (TABLE 2)
[14] = complete media, FDA drug library screen (TABLE 2)
[15] = Complete minus Cholesterol-free, […]
[16] = NCI-H292 cells, cholesterol-free media without statin, FDA drug library screen
[17] = NCI-H292 cells, complete media, FDA drug library screen
[18] = FDA library drug in cholesterol-free media with simvastatin 0.04 μM
[19] = FDA library drug in complete media
[20] = Complete minus Cholesterol-free, greater than 0 enhanced anti-cancer activity, about 0 neutral, below 0 antagonists
[21] = NCI-H292 cells in cholesterol-free media without statin
[22] = NCI-H292 cells in complete media
[23] = cholesterol-free media with simvastatin 0.04 μM, cell growth value in FDA drug screen
[24] = complete media, cell growth value in FDA drug screen
[25] = complete vs cholesterol-free media, greater than 0 enhanced anti-cancer activity, about 0 neutral, below 0 antagonists
[26] = complete media vs cholesterol-free media + simvastatin (0.04 μM), […]

Molecule: CCN(CC)C(=O)c1cccnc1 [Nikethamide]
- Cholesterol-free media + simvastatin (0.04 μM) [1, 3]: −0.004932
- Complete Media [1, 4]: 1.43
- Difference [1, 5]: 1.44
- Difference [2, 6]: −0.18
- Cholesterol-free [2, 7]: 1.071
- Complete [2, 8]: 0.8953

Molecule: COC(=O)[C@H]1[C@H]2C[C@@H]3c4[nH]c5ccccc5c4CCN3C[C@H]2C[C@@H](OC(=O)c2cc(OC)c(OC)c(OC)c2)[C@@H]1OC [Deserpidine]
- Cholesterol-free media + simvastatin (0.04 μM) [1, 9]: 1.05
- Complete Media ([1]; drug in complete media): 0.8141
- Difference [1, 10]: −0.24
- Difference [2, 11]: −0.30
- Cholesterol-free [2, 12]: 0.9648
- Complete ([2]; NCI-H292 cells, complete media): 0.6619

Molecule: CC(=O)OC[C@H]1O[C@@H]([S-])[C@H](OC(C)=O)[C@@H](OC(C)=O)[C@@H]1OC(C)=O.CCP(CC)CC.[Au+] [Auranofin]
- Cholesterol-free media + simvastatin (0.04 μM) [1, 13]: 0.01251
- Complete Media [1, 14]: 0.0008313
- Difference ([1]; complete media minus cholesterol-free media + simvastatin (0.04 μM), […]): −0.01
- Difference [2, 15]: 0.01
- Cholesterol-free [2, 16]: −0.008527
- Complete [2, 17]: 0.0049

Molecule: N#Cc1cc(NC(=O)C(=O)O)c(Cl)c(NC(=O)C(=O)O)c1.NC(CO)(CO)CO.NC(CO)(CO)CO [Lodoxamide (tromethamine)]
- Cholesterol-free media + simvastatin (0.04 μM) [1, 3]: 0.9835
- Complete Media [1, 4]: 1.282
- Difference [1, 5]: 0.30
- Difference [2, 6]: −0.13
- Cholesterol-free [2, 7]: 0.8848
- Complete [2, 8]: 0.7586

Molecule: NC(=O)NO [Hydroxyurea]
- Cholesterol-free media + simvastatin (0.04 μM) [1, 18]: 1.418
- Complete Media [1, 19]: 1.131
- Difference [1, 10]: −0.29
- Difference [2, 20]: −0.79
- Cholesterol-free [2, 21]: 1.72
- Complete [2, 22]: 0.9327

Molecule: CCN(CC)CCNC(=O)c1ccc(N)cc1 [Procainamide (hydrochloride)]
- Cholesterol-free media + simvastatin (0.04 μM) [1, 18]: 1.529
- Complete Media [1, 19]: 1.165
- Difference [1, 10]: −0.36
- Difference [2, 20]: −0.51
- Cholesterol-free [2, 21]: 1.397
- Complete [2, 22]: 0.8831

Molecule: Cc1ccccc1-c1cc(N2CCN(C)CC2)ncc1N(C)C(=O)C(C)(C)c1cc(C(F)(F)F)cc(C(F)(F)F)c1 [Netupitant]
- Cholesterol-free media + simvastatin (0.04 μM) [1, 23]: 0.8546
- Complete Media [1, 24]: 0.9156
- Difference [1, 5]: 0.06
- Cholesterol-free [2, 12]: 1.25
- Complete ([2]; NCI-H292 cells, complete media): 0.915
- Difference [2, 25]: −0.34

Molecule: (S)-Timolol (Maleate)
- Cholesterol-free media + simvastatin (0.04 μM) [1, 23]: 1.237
- Complete Media [1, 24]: 1.285
- Difference [1, 5]: 0.05
- Difference [2, 11]: −0.04
- Cholesterol-free [2, 16]: 1.235
- Complete [2, 17]: 1.191

Molecule: CC(C)(C)c1ccc(C(O)CCCN2CCC(C(O)(c3ccccc3)c3ccccc3)CC2)cc1 (stereo not drawn) [Terfenadine]
- Cholesterol-free media + simvastatin (0.04 μM) [1, 23]: 0.9762
- Complete Media [1, 24]: 1.013
- Difference [1, 5]: 0.04
- Cholesterol-free [2, 12]: 1.145
- Complete ([2]; NCI-H292 cells, complete media): 0.8219
- Difference [2, 25]: −0.32

Molecule: Nc1cccc2c1CN(C1CCC(=O)NC1=O)C2=O (stereo not drawn) [Lenalidomide (hemihydrate)]
- Cholesterol-free media + simvastatin (0.04 μM) [1, 18]: 1.432
- Complete Media [1, 19]: 1.135
- Difference [1, 10]: −0.30
- Difference [2, 11]: −0.19
- Cholesterol-free [2, 12]: 1.181
- Complete ([2]; NCI-H292 cells, complete media): 0.9861

Molecule: Cc1c(C)c2c(c(C)c1O)CCC(C)(COc1ccc(CC3SC(=O)NC3=O)cc1)O2 (stereo not drawn) [Troglitazone]
- Cholesterol-free media + simvastatin (0.04 μM) [1, 3]: 0.9725
- Complete Media [1, 4]: 0.8929
- Difference [1, 10]: −0.08
- Cholesterol-free [2, 16]: 0.7956
- Complete [2, 17]: 1.359
- Difference ([2]; complete vs cholesterol-free media, >0 enhanced anti-cancer activity, about 0 neutral, <0 antagonist): 0.56

Molecule: CCOC(=O)c1ncn2c1CN(C)C(=O)c1cc(F)ccc1-2 [Flumazenil]
- Cholesterol-free media + simvastatin (0.04 μM) [1, 18]: 1.268
- Complete Media [1, 19]: 0.8397
- Difference [1, 10]: −0.43
- Difference [2, 11]: 0.05
- Cholesterol-free [2, 16]: 1.073
- Complete [2, 17]: 1.128

Molecule: Cc1cc(-n2c(=O)[nH]c(=O)n(C)c2=O)ccc1Oc1ccc(SC(F)(F)F)cc1 [Toltrazuril]
- Cholesterol-free media + simvastatin (0.04 μM) [1, 3]: 0.9815
- Complete Media [1, 4]: 0.8466
- Difference [1, 10]: −0.13
- Difference [2, 11]: −0.07
- Cholesterol-free [2, 16]: 0.9718
- Complete [2, 17]: 0.9012

Molecule: O=C(O)c1cc(O)c(O)c(O)c1 [Gallic acid]
- Cholesterol-free media + simvastatin (0.04 μM) [1, 18]: 2.089
- Complete Media [1, 19]: 1.613
- Difference [1, 10]: −0.48
- Difference [2, 6]: −0.08
- Cholesterol-free [2, 7]: 1.301
- Complete [2, 8]: 1.222

Molecule: CCOc1cc(CC(=O)N[C@@H](CC(C)C)c2ccccc2N2CCCCC2)ccc1C(=O)O [Repaglinide]
- Cholesterol-free media + simvastatin (0.04 μM) [1, 9]: 0.996
- Complete Media ([1]; drug in complete media): 0.8125
- Difference [1, 10]: −0.18
- Difference [2, 6]: −0.08
- Cholesterol-free [2, 7]: 1.088
- Complete [2, 8]: 1.008

Molecule: Abemaciclib (methanesulfonate)
- Cholesterol-free media + simvastatin (0.04 μM) [1, 18]: 0.9262
- Complete Media [1, 19]: 0.6131
- Difference [1, 10]: −0.31
- Difference [2, 11]: −0.03
- Cholesterol-free [2, 16]: 0.6853
- Complete [2, 17]: 0.6534

Molecule: Cc1[nH]c2ccccc2c1CCNCc1ccc(/C=C/C(=O)NO)cc1 [Panobinostat]
- Cholesterol-free media + simvastatin (0.04 μM) [1, 13]: 0.008426
- Complete Media [1, 14]: −0.004725
- Difference ([1]; complete media minus cholesterol-free media + simvastatin (0.04 μM), >0 enhanced anti-cancer activity, about 0 neutral, <0 antagonist): −0.01
- Difference [2, 11]: −0.03
- Cholesterol-free [2, 16]: −0.004474
- Complete [2, 17]: −0.02997

Molecule: O=C(O)[C@H]1O[C@@H](Oc2cc3oc(-c4ccccc4)cc(=O)c3c(O)c2O)[C@H](O)[C@@H](O)[C@@H]1O [Baicalin]
- Cholesterol-free media + simvastatin (0.04 μM) [1, 9]: 1.298
- Complete Media ([1]; drug in complete media): 1.093
- Difference [1, 10]: −0.20
- Difference [2, 11]: −0.04
- Cholesterol-free [2, 16]: 1.064
- Complete [2, 17]: 1.025

Molecule: C[n+]1ccccc1C=NO.[I-] [Pralidoxime (iodide)]
- Cholesterol-free media + simvastatin (0.04 μM) [1, 3]: 0.9948
- Complete Media [1, 4]: 0.8823
- Difference [1, 26]: −0.11
- Difference [2, 15]: −0.07
- Cholesterol-free [2, 7]: 1.049
- Complete [2, 8]: 0.9757

Molecule: C=C1[C@H](CO)[C@@H](O)C[C@@H]1n1cnc2c(=O)[nH]c(N)nc21 [Entecavir (monohydrate)]
- Cholesterol-free media + simvastatin (0.04 μM) [1, 9]: 1.17
- Complete Media ([1]; drug in complete media): 0.9716
- Difference [1, 10]: −0.20
- Difference [2, 20]: −0.52
- Cholesterol-free [2, 21]: 1.519
- Complete [2, 22]: 1

Molecule: Cc1cc(N2CCN([C@@H]3CN[C@H](C(=O)N4CCSC4)C3)CC2)n(-c2ccccc2)n1 [Teneligliptin (hydrobromide)]
- Cholesterol-free media + simvastatin (0.04 μM) [1, 18]: 1.564
- Complete Media [1, 19]: 1.115
- Difference [1, 26]: −0.45
- Difference [2, 15]: −0.56
- Cholesterol-free [2, 21]: 1.45
- Complete [2, 22]: 0.8858

Molecule: c1ccc(CN(CC2=NCCN2)c2ccccc2)cc1 [Antazoline (hydrochloride)]
- Cholesterol-free media + simvastatin (0.04 μM) [1, 9]: 1.401
- Complete Media ([1]; drug in complete media): 1.21
- Difference [1, 10]: −0.19
- Difference [2, 11]: −0.24
- Cholesterol-free [2, 12]: 1.006
- Complete ([2]; NCI-H292 cells, complete media): 0.7704

Molecule: O=C1CN2Cc3c(ccc(Cl)c3Cl)N=C2N1 [Anagrelide (hydrochloride)]
- Cholesterol-free media + simvastatin (0.04 μM) [1, 18]: 1.221
- Complete Media [1, 19]: 0.9483
- Difference [1, 10]: −0.27
- Difference [2, 11]: −0.26
- Cholesterol-free [2, 12]: 0.988
- Complete ([2]; NCI-H292 cells, complete media): 0.7326
